Laboratory results taken from PubChem BioAssay (NCI).
Where “and” joins values, the source holds several entries; their conditions need not be identical. Identical values can stand only once.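 Where inhibition never reached the appropriate level, the endpoint shown equals the highest concentration tested. Otherwise, values were interpolated linearly from a five-concentration, 48-hour dose response in 96-well plates. GI50 = concentration required for 50% inhibition of growth. TGI marks complete inhibition of growth.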

How the values were obtained:
Assay in all cases: NCI tumour cell line growth inhibition, 48 h
HCC-2998 colon = tested on: HCC-2998 colon
HCT-15 colon = tested on: HCT-15 colon
HOP-92 NSCLC = tested on: HOP-92 NSCLC
HT29 colon = tested on: HT29 colon
IGROV1 ovarian = tested on: IGROV1 ovarian
LOX IMVI melanoma = tested on: LOX IMVI melanoma
M14 melanoma = tested on: M14 melanoma
OVCAR-5 ovarian = tested on: OVCAR-5 ovarian
SF-295 CNS = tested on: SF-295 CNS
UACC-257 melanoma = tested on: UACC-257 melanoma

| Compound | GI50 (HCC-2998 colon) | TGI (HCC-2998 colon) | GI50 (HCT-15 colon) | TGI (HCT-15 colon) [µM] | GI50 (HOP-92 NSCLC) | TGI (HOP-92 NSCLC) | GI50 (HT29 colon) | TGI (HT29 colon) [µM] | GI50 (IGROV1 ovarian) [µM] | TGI (IGROV1 ovarian) [µM] | GI50 (LOX IMVI melanoma) [µM] | TGI (LOX IMVI melanoma) [µM] | GI50 (M14 melanoma) [µM] | TGI (M14 melanoma) [µM] | GI50 (OVCAR-5 ovarian) [µM] | TGI (OVCAR-5 ovarian) [µM] | GI50 (SF-295 CNS) [µM] | TGI (SF-295 CNS) [µM] | GI50 (UACC-257 melanoma) [µM] | TGI (UACC-257 melanoma) [µM] |
| --- | --- | --- | --- | --- | --- | --- | --- | --- | --- | --- | --- | --- | --- | --- | --- | --- | --- | --- | --- | --- |
| COc1cccc(Nc2nccc(-c3cnn4ncccc34)n2)c1 | 0.0671 µM | 0.238 µM | 0.0697 µM | > 25 | 0.0392 µM | 0.157 µM | 0.0513 µM | 0.198 | 0.101 | > 25 | 0.0275 | > 25 | 0.0777 | 0.34 | 0.0812 | > 25 | 0.0496 | > 25 | 0.0563 | 0.16 |
| Nc1c(F)cc(-c2nc3cc(F)ccc3[se]2)cc1Br | 0.0477 µM | 0.35 µM | 0.0476 µM | > 100 | 0.526 µM | 19.4 µM | 0.0651 µM | – | 0.0127 | 27.4 | 14.1 | > 100 | 16.5 | > 100 | 0.067 | > 33.5 | 12.7 | > 100 | > 100 | > 100 |
| CCN(Cc1ccc(F)cc1)c1ccc(CO)c(OC)c1 | 21.9 µM | > 60.5 µM | 14.6 µM | 41 | 7.29 µM | 37.2 µM | 24 µM | > 67.5 | 6.62 | 27.8 | 27.8 | > 100 | 31.1 | > 100 | 2.64 | 12.2 | 23.5 | > 84.3 | 8.85 | 42.7 |
| CN1CCN(Cc2ccc(NC(=O)c3cncc(C#Cc4cnc(N)c5cnccc45)c3)cc2C(F)(F)F)CC1 | 0.234 µM | 7.12 µM | 0.721 µM | 6.31 | 0.0725 µM | 0.287 µM | 0.115 µM | 6.1 | 0.141 | 0.649 | 0.0745 | 0.26 | 0.0727 | 0.281 | 0.162 | 4.39 | 0.799 | 7.07 | 0.161 | 1.45 |
| O=[N+]([O-])c1ccc(Sc2ccncn2)c([N+](=O)[O-])c1 | 5.17 µM | 16.3 µM | 3.07 µM | 9.93 | 1.17 µM | 2.66 µM | 1.64 µM | 3.81 | 2.23 | 5.3 | 1.97 | 5.21 | 1.64 | 3.3 | 5.25 | 17.7 | 7.29 | 20.3 | 2.81 | 9.37 |
| CCCCCCCCCCCCCB(O)O | > 100 µM and 32 µM | > 100 µM and 84.7 µM | > 100 µM and 49.3 µM | > 100 | > 100 µM and 25.1 µM | > 100 µM and 82.9 µM | > 100 µM and 29.9 µM | > 100 | – | > 100 | – | > 100 | – | > 100 | – | > 100 | – | > 100 | – | > 100 |
| C[CH2][Sn]([CH2]C)([O]C(=O)c1ccc(OC)c(OC)c1OC)[O]C(=O)c1ccc(OC)c(OC)c1OC | > 100 µM | > 100 µM | 61.2 µM | > 100 | 21.8 µM | 49.6 µM | > 96 µM | > 100 | > 100 | > 100 | 27.2 | > 69.7 | 61.9 | > 100 | > 85.4 | > 100 | > 100 | > 100 | > 78.9 | > 100 |
| c1ccc(N/N=C2\NN=C(c3ccccc3)CS2)cc1 | – | 19.3 µM | – | 20.9 | – | 31.9 µM | – | 24 | – | 32.3 | – | 15.3 | – | 24.8 | – | 41.8 | – | 48.6 | – | 41.4 |
| COc1ccc2c(c1OC(C)=O)C1=CC(=O)CCC13CCNC3C2 (stereo unspecified) | – | > 100 µM | – | > 100 | – | > 100 µM | – | > 100 | – | > 100 | – | > 100 | – | > 100 | – | > 100 | – | > 100 | – | > 100 |
| Cc1nccc2c3ccc(OCc4cn(-c5ccc(Cl)cc5)nn4)cc3n(CC(C)C)c12 | 3.68 µM | > 33.3 µM | 1.28 µM | 21.5 | 1.19 µM | 13.6 µM | 1.25 µM | 10.4 | 4.99 | 18.7 | 3.63 | > 33.3 | 1.61 | 13.9 | 4.68 | 23.2 | 1.25 | 7.64 | 4.62 | 16.8 |
| O=C1C2C3C=CC(C2C(=O)N1CN1CCSCC1)C1C2C(=O)N(CN4CCSCC4)C(=O)C2C31 (stereo unspecified) | – | > 100 µM | – | > 59.7 | – | > 100 µM | – | > 100 | – | > 100 | – | > 80.5 | – | > 100 | – | > 100 | – | > 100 | – | > 100 |
| C[C@@H](Oc1cc(-n2cnc3ccc(OC[C@@H](O)CO)cc32)sc1C(N)=O)c1ccccc1Cl | 0.0848 µM | > 25 µM | 1.88 µM | > 25 | 0.765 µM | > 16.4 µM | 0.0798 µM | > 25 | 0.214 | > 25 | 0.0931 | > 25 | 0.0993 | > 25 | 0.414 | > 25 | 0.318 | > 25 | 0.291 | > 25 |
| Cc1ccc(S(=O)(=O)Nc2ccc(-c3cc(-c4cccc(F)c4)c(C#N)c(N)n3)cc2)cc1 | 1.72 µM | 3.28 µM | 1.88 µM | 4.86 | 1.06 µM | 2.37 µM | 3.4 µM | 12.3 | 1.35 | 2.75 | 1.82 | 3.66 | 2.01 | 4.38 | 1.73 | 3.46 | 3.33 | 14.5 | 1.93 | 4.24 |
| Cc1cc(Cl)cc(Cc2cc(Cl)cc(C)c2O)c1O | 2.68 µM | 7.95 µM | 3.06 µM | 11.3 | 0.397 µM | 2.83 µM | 3.63 µM | 10.7 | 5.18 | 29.5 | 3 | 8.9 | 2.98 | 11.3 | 3.35 | 12.3 | 2.49 | 7.14 | 3.02 | 12.3 |
| CCCCCC[C@H](C)NC(=O)c1ccc(Nc2nc3ccccc3c3occc23)cc1 | 1.26 µM | 4.16 µM | 8.42 µM | 33 | 3 µM | 50.4 µM | 2.53 µM | > 100 | 2.46 | 5.77 | 11.4 | 24.3 | 2.25 | 5.37 | 5.35 | > 100 | 2.62 | > 100 | 2.64 | 6.17 |
| N#CC1C(=O)NC(c2ccccc2[N+](=O)[O-])c2sc3c(F)cccc3c21 (stereo unspecified) | 10.1 µM | 32.7 µM | 10.4 µM | 61.2 | 11.3 µM | 47.3 µM | 11.5 µM | > 93.9 | 0.0549 | 5.11 | 15.9 | 37.8 | 16.3 | 47.5 | 0.583 | 4.45 | 1.11 | 30.3 | 0.961 | 4.72 |
| COC(=O)[C@]12CC[C@@H](C)[C@H](C)[C@@H]1C1=CC[C@@H]3[C@@]4(C)C(C=O)=C[C@@](C)(COC(=O)/C=C/c5ccccc5)[C@@H]4[C@H](O)C[C@@]3(C)[C@]1(C)CC2 | 3.04 µM | 7.75 µM | 2.2 µM | 5.36 | 2.19 µM | 9.1 µM | 3.1 µM | 10.2 | 4.34 | 66.4 | 1.77 | 3.66 | 3.33 | 17.3 | 3.08 | 13.6 | 2.06 | 5.78 | 2.36 | 6.82 |
| COCc1c(-c2ccc(NC(=O)Nc3cc(C(F)(F)F)ccc3F)c(F)c2)c2c(N)ncnn2c1CN1CCOCC1 | 2.84 µM | 7.33 µM | 1.74 µM | > 10 | 0.382 µM | 5.97 µM | 1.62 µM | > 10 | 0.438 | 7.06 | 1.36 | 5.77 | 1.5 | > 10 | 3.32 | > 10 | 1.56 | 6.54 | 3.43 | > 10 |
| COc1ccc2c(c1)C(=O)c1c-2c(Nc2cccc(C(C)=O)c2)nc2ccccc12 | 16.1 µM | 91.4 µM | 24 µM | > 100 | 11.1 µM | 27.7 µM | 21.2 µM | > 100 | 3.67 | 18.4 | 13.4 | 27.5 | 15.5 | 46.5 | 11.4 | 24.5 | 21.7 | 56.2 | 23.9 | 61.7 |
| O=c1cc(-c2ccccc2)[nH]c2cc(Cl)ccc12 | – | 4.76 µM | – | 15.8 | – | 57.5 µM | – | > 100 | – | > 100 | – | 21.7 | – | > 100 | – | > 100 | – | 2.07 | – | 83.2 |
| CCOCc1cc(=O)c2c(OC)cc3c(c2o1)CCC(C)(C)O3 | – | > 100 µM | – | > 100 | – | > 100 µM | – | > 100 | – | > 100 | – | > 100 | – | > 100 | – | > 100 | – | > 100 | – | > 100 |
| C=CCc1c(O)c(C(=O)/C=C/c2ccccc2)c(OC)c2ccoc12 | 1.73 µM | 3.21 µM | 2.91 µM | 11.8 | 1.33 µM | 4.82 µM | 3.01 µM | – | 3.35 | 11.6 | 1.56 | 2.93 | 5.36 | 22.9 | 3.22 | 12.7 | 2.44 | 7.26 | 2.56 | 7.75 |
| CCn1ccc(NS(=O)(=O)c2ccc(N)cc2)nc1=O | > 100 µM | > 100 µM | > 100 µM | > 100 | > 100 µM | > 100 µM | > 100 µM | > 100 | > 100 | > 100 | > 100 | > 100 | > 100 | > 100 | > 100 | > 100 | > 100 | > 100 | > 100 | > 100 |
| COc1ccc(/C=C2\c3cc(OC)c(OC)c(OC)c3CC[C@@H]2O)cc1F | 0.809 µM | 80.2 µM | 0.19 µM | > 100 | 25 µM | > 100 µM | 1.36 µM | 13.4 | 0.812 | > 100 | 0.395 | 48.6 | 0.274 | > 100 | 10.4 | > 100 | 0.222 | > 100 | > 100 | > 100 |
| COc1cc(/C=C/C(=O)c2c(C)nc3ccccc3c2C)ccc1OCCCN1CCN(C(=O)c2ccco2)CC1 | 10.4 µM | 22.1 µM | 5.74 µM | 30.9 | – | 4.74 µM | 7.71 µM | 23.2 | 6.7 | 24.6 | 7.75 | 21.5 | 11.6 | 23.8 | 18.1 | 32 | 8.42 | 25.1 | 3.28 | 16.1 |
| CCN=C(C#N)NCC | – | > 100 µM | – | > 100 | – | > 100 µM | – | > 100 | – | > 100 | – | > 100 | – | > 100 | – | > 100 | – | > 100 | – | > 100 |
| CCc1cccc(C)c1NC(=S)NC(=O)c1ccccc1C(=O)NC(=S)Nc1c(C)cccc1CC | – | > 100 µM | – | > 100 | – | 65.4 µM | – | > 100 | – | > 100 | – | > 100 | – | > 100 | – | > 100 | – | > 100 | – | > 100 |
